Broadly, the IC50 is the point on the concentration scale where inhibition reaches its midpoint.

Data set [1] concerns the target T1, Tumor necrosis factor (Homo sapiens, UniProt P01375). Description: Displacement of fluorescent labeled probe from human recombinant His-tagged TNFalpha (77 to 233 residues) expressed in Escherichia coli preincubated for 1 hr followed by fluorogenic probe addition and measured after 3 hrs by HTRF assay. (In general: TR-FRET usually uses a lanthanide donor and a delayed reading to cut background.)

Data set [2] concerns the target T1, Tumor necrosis factor. The experiment in a line: Inhibition of exogenous human TNFalpha in HEK-Blue-CD40L cells assessed as reduction in TNF-alpha-induced NFkappaB activation incubated for 18 hrs by quanti-blue based SEAP assay. The format is cell-based.
Data set [3] is described as follows: Metabolic stability in human liver microsomes assessed as parent compound remaining after 10 mins. Type of data set: ADME, Microsome. Particulars: read-out: Stabilty. (Microsomes from liver hold many membrane-bound enzymes, among them those of drug oxidation.)
A short description of data set [4]: Metabolic stability in mouse liver microsomes assessed as parent compound remaining after 10 mins. Type of data set: ADME, Microsome. Particulars: read-out: Stabilty.
For another data set, the target named is Cytochrome P450 2C9 (Homo sapiens, UniProt P11712). The experiment in a line: Inhibition of recombinant CYP2C9 (unknown origin). Type of data set: ADME.
Sequence of Cytochrome P450 2C9 (P11712 whole entry): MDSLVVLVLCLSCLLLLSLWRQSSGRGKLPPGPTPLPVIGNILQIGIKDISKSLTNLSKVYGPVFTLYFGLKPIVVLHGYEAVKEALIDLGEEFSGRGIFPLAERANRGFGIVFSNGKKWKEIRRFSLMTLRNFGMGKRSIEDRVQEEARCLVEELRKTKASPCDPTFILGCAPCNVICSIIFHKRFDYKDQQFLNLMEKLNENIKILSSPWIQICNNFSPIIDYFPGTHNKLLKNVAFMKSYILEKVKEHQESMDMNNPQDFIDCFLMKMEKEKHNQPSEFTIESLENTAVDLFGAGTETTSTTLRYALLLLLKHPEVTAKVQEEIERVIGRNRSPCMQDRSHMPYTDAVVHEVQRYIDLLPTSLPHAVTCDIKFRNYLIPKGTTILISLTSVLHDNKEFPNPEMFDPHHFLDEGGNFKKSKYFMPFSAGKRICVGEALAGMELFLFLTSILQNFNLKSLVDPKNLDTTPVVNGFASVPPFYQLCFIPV
A further data set has as its target Cytochrome P450 2C19 (Homo sapiens, UniProt P33261). The experiment in a line: Inhibition of recombinant CYP2C19 (unknown origin). Type of data set: ADME.

Sequence of Cytochrome P450 2C19 (P33261 whole entry): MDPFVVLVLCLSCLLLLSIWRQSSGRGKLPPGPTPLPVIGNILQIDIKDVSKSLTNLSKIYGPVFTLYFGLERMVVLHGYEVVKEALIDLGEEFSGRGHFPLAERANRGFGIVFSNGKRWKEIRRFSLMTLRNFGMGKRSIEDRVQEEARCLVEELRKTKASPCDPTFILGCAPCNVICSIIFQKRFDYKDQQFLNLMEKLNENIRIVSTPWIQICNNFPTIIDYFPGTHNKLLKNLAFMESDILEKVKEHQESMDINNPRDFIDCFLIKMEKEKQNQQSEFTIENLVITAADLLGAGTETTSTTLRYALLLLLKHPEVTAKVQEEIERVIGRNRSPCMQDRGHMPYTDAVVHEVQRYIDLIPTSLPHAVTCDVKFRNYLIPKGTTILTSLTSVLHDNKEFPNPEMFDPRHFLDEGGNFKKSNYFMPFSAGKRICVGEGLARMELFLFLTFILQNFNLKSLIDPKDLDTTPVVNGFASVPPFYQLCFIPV
T1 sequence (P01375 whole entry, the tested form may be a part): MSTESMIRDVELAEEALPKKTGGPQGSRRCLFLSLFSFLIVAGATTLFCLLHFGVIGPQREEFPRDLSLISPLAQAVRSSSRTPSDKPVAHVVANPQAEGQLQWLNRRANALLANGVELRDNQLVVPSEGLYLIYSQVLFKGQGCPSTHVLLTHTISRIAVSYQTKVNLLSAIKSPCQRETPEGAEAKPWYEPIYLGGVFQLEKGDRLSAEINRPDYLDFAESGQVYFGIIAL

For `CC(Nc1c(Cl)cnc2ccc(-c3cnc(C(C)(C)O)nc3)nc12)c1ccccc1F` (single isomer, unassigned; enantiomer 1), the IC50 is 39 nM on Tumor necrosis factor [1] and 753 nM on Tumor necrosis factor [2].
As to `CC(C)(O)c1ncc(-c2ccc3ncc(Cl)c(NCc4ccccc4)c3c2)cn1`, the IC50 at Tumor necrosis factor [1] was 82 nM; on Tumor necrosis factor [2], over 25000 nM. Moreover, the remaining at 10 min came out at 57% in data set [3] and 61% in data set [4].
For `CC(Nc1c(Cl)cnc2ccc(-c3cnc(C(C)(C)O)nc3)cc12)c1ccccc1F` (racemic), in that order: 27 nM, 190 nM, 51% and 34%.
`C[C@H](Nc1c(Cl)cnc2ccc(-c3cnc(C(C)(C)O)nc3)cc12)c1ccccc1`: the IC50 is 943 nM on Tumor necrosis factor [1] and over 25000 nM on Tumor necrosis factor [2]. Also, the figures for the remaining at 10 min in data set [3] and in data set [4] were 32% and 26%, respectively.
For `C[C@@H](Nc1c(Cl)cnc2ccc(-c3cnc(C(C)(C)O)nc3)cc12)c1ccccc1`, in that order: 14 nM, 496 nM, 45% and 50%.
For `CC(C)C(Nc1c(Cl)cnc2ccc(-c3cnc(C(C)(C)O)nc3)cc12)c1ccccc1F` (racemic), in that order: 57 nM, 826 nM, 69% and 13%.
In the case of `Cc1ccc(C)c(Nc2c(C)cnc3ccc(-c4cnc(C(C)(C)O)nc4)cc23)c1`, the concentration for half-maximal inhibition (IC50) at Tumor necrosis factor [2] is 107 nM.
For the compound `CC(Nc1c(Cl)cnc2ccc(-c3cnc(C(C)(C)O)nc3)cc12)c1ccc(F)cc1` (racemic), the 50% inhibitory concentration (IC50) at Tumor necrosis factor [1] is 62 nM; at Tumor necrosis factor [2], 840 nM. The values for the remaining at 10 min in data set [3] and in data set [4] were 42% and 38%, respectively.
Regarding `C[C@@H](Nc1c(Cl)cnc2ccc(-c3cnc(C(C)(C)O)nc3)cc12)c1cc(C#N)ccc1F`, the IC50 turned out to be 48 nM on Tumor necrosis factor [1] and 49 nM on Tumor necrosis factor [2]. The remaining at 10 min in data set [3] was found to be 79%; in data set [4] it was 23%.
For `C[C@@H](Nc1c(Cl)cnc2ccc(-c3cnc(C(C)(C)O)nc3)cc12)c1cc(N)ccc1F`, in that order: 37 nM, 41 nM, 70% and 45%.
For the compound `C[C@@H](Nc1c(Cl)cnc2ccc(-c3ccc(S(C)(=O)=O)nc3)cc12)c1ccccc1F`, the 50% inhibitory concentration (IC50) was 15 nM at Tumor necrosis factor [1] and 909 nM on Tumor necrosis factor [2]. Moreover, the figures for the remaining at 10 min in data set [3] and in data set [4] were 33% and 31%, respectively.
For `Cc1ccc(C)c(Nc2c(Cl)cnc3ccc(Br)cc23)c1`, the half-maximal inhibitory concentration (IC50) on Tumor necrosis factor [1] came out at 36 nM; on Tumor necrosis factor [2], 840 nM.
For `C[C@@H](Nc1c(Cl)cnc2ccc(-c3cnc(C(C)(C)O)nc3)cc12)c1cc(N2CCCC2)ccc1F`, the IC50 at Tumor necrosis factor [1] is 94 nM; on Tumor necrosis factor [2] it was 331 nM. Further, the results for the remaining at 10 min in data set [3] and in data set [4] were 30% and 18%, respectively.
In the case of `CC(Nc1c(Cl)cnc2ncc(-c3cnc(C(C)(C)O)nc3)cc12)c1ccccc1F` (racemic), the half-inhibitory concentration (IC50) on Tumor necrosis factor [1] amounted to 207 nM.
On to `CC(Nc1c(Cl)cnc2cc(Cl)c(-c3cnc(C(C)(C)O)nc3)cc12)c1ccccc1F` (racemic), for which the figures for the IC50 at Tumor necrosis factor [1] and on Tumor necrosis factor [2] were 54 nM and 178 nM, respectively.
As for `C[C@@H](Nc1c(Cl)cnc2ccc(-c3ccc(C(C)(C)O)cc3)cc12)c1ccccc1F`, the IC50 on Tumor necrosis factor [1] is 47 nM; on Tumor necrosis factor [2], 65 nM. Also, the remaining at 10 min in data set [3] is 73%; in data set [4], 24%.
Taken in the same sequence, the figures for `C[C@@H](Nc1ccnc2ccc(-c3cnc(C(C)(C)O)nc3)cc12)c1cc(N2CCCC2)ccc1F` were 15100 nM, over 25000 nM, 46% and 51%.
On to `CC(Nc1c(Cl)cnc2ccc(-c3cnc(C(C)(C)O)nc3)nc12)c1ccccc1F` (racemic), for which the half-inhibitory concentration (IC50) on Tumor necrosis factor [1] amounted to 24 nM.
Turning to `CC(Nc1c(Cl)cnc2c(F)cc(-c3cnc(C(C)(C)O)nc3)cc12)c1ccccc1F` (racemic), the figures for the IC50 at Tumor necrosis factor [1] and on Tumor necrosis factor [2] were 46 nM and 224 nM, respectively. Besides, the remaining at 10 min in data set [3] is 67%; in data set [4], 25%.
As to `CCC(Nc1c(Cl)cnc2ccc(-c3cnc(C(C)(C)O)nc3)cc12)c1ccccc1F` (racemic), the IC50 on Tumor necrosis factor [1] amounted to 35 nM; on Tumor necrosis factor [2], 368 nM. Further, the remaining at 10 min in data set [3] was determined as 57%; in data set [4], 38%.
Regarding `Cc1ccc(C)c(Nc2c(Cl)cnc3ccc(-c4cnc(C(C)(C)O)nc4)cc23)c1`, the IC50 on Tumor necrosis factor [2] worked out at 105 nM; on Cytochrome P450 2C9, 600 nM; on Cytochrome P450 2C19, 30 nM. Moreover, the remaining at 10 min in data set [3] was determined as 35%; in data set [4] it was 24%.
On to `CC(C)(O)c1ncc(-c2ccc3ncc(Cl)c(NC(C)(C)c4ccccc4)c3c2)cn1`, for which the IC50 is over 10000 nM at Tumor necrosis factor [1] and over 25000 nM on Tumor necrosis factor [2]. Also, the remaining at 10 min in data set [3] was found to be 76%; in data set [4] it was 47%.
For `C[C@@H](Nc1c(Cl)cnc2ccc(-c3cnc(N4CCN(CC(=O)O)CC4)nc3)cc12)c1ccccc1F`, the 50% inhibitory concentration (IC50) at Tumor necrosis factor [2] was 115 nM. The remaining at 10 min amounted to 86% in data set [3] and 57% in data set [4].
Take `Cc1ccc(C)c(Nc2c(Cl)cnc3ccc(-c4ccc(C#N)nc4)cc23)c1`: the results for the IC50 at Tumor necrosis factor [1] and on Tumor necrosis factor [2] were 35 nM and 73 nM, respectively. The remaining at 10 min was found to be 33% in data set [3] and 30% in data set [4].
Taken in the same sequence, the figures for `CCOc1ncc(-c2ccc3ncc(Cl)c(N[C@H](C)c4ccccc4F)c3c2)cn1` were 15 nM, 587 nM, 32% and 28%.
`CC(Nc1c(Cl)cnc2ccc(-c3cnc(C(C)(C)O)nc3)cc12)c1ccccn1` (racemic): the IC50 was 264 nM on Tumor necrosis factor [1] and over 25000 nM on Tumor necrosis factor [2]. The remaining at 10 min in data set [3] was found to be 50%; in data set [4], 21%.
As to `CC(Nc1c(Cl)cnc2cc(F)c(-c3cnc(C(C)(C)O)nc3)cc12)c1ccccc1F` (racemic), the figures for the half-inhibitory concentration (IC50) at Tumor necrosis factor [1] and at Tumor necrosis factor [2] were 48 nM and 64 nM, respectively. Besides, the values for the remaining at 10 min in data set [3] and in data set [4] were 70% and 28%, respectively.
With `Cc1ccc(C)c(Nc2ccnc3ccc(-c4ccc(C#N)nc4)cc23)c1`, the IC50 on Tumor necrosis factor [1] is 428 nM; at Tumor necrosis factor [2] it was over 25000 nM.
As for `CC(Nc1c(Cl)cnc2cnc(-c3cnc(C(C)(C)O)nc3)cc12)c1ccccc1F` (racemic), at Tumor necrosis factor [1], the IC50 amounted to 400 nM.
Turning to `CC(Nc1c(Cl)cnc2c(Cl)cc(-c3cnc(C(C)(C)O)nc3)cc12)c1ccccc1F` (racemic), the results for the 50% inhibitory concentration (IC50) at Tumor necrosis factor [1] and on Tumor necrosis factor [2] were 106 nM and over 25000 nM, respectively. For the same compound, the remaining at 10 min is 40% in data set [3] and 7% in data set [4].
Regarding `CC(Nc1c(Cl)cnc2ccc(-c3cnc(C(C)(C)O)nc3)c(Cl)c12)c1ccccc1F` (racemic), the results for the IC50 at Tumor necrosis factor [1] and at Tumor necrosis factor [2] were 116 nM and 365 nM, respectively.
Turning to `CC(Nc1c(Cl)cnc2ccc(-c3cnc(C(C)(C)O)nc3)nc12)c1ccccc1F` (single isomer, unassigned; enantiomer 2), the concentration for half-maximal inhibition (IC50) at Tumor necrosis factor [1] came out at 38 nM; at Tumor necrosis factor [2] it was 473 nM; at Cytochrome P450 2C19 it was 30 nM. Moreover, the results for the remaining at 10 min in data set [3] and in data set [4] were 84% and 41%, respectively.
For `C[C@@H](Nc1c(Cl)cnc2ccc(-c3cnc(C(C)(C)O)nc3)cc12)c1ccccc1F`, the results for the half-maximal inhibitory concentration (IC50) on Tumor necrosis factor [1] and at Tumor necrosis factor [2] were 17 nM and 110 nM, respectively. The remaining at 10 min was 59% in data set [3] and 54% in data set [4].
For `Cc1ccc(C)c(Nc2c(Cl)c(C)nc3ccc(-c4cnc(C(C)(C)O)nc4)cc23)c1`, the half-inhibitory concentration (IC50) on Tumor necrosis factor [1] was 51 nM; at Tumor necrosis factor [2], 196 nM; on Cytochrome P450 2C9 it was 2800 nM; on Cytochrome P450 2C19, 2100 nM.
As to `CC(Nc1c(Cl)cnc2ccc(-c3cnc(C(C)(C)O)nc3)cc12)c1ccccc1C(F)(F)F` (racemic), the half-maximal inhibitory concentration (IC50) was 51 nM on Tumor necrosis factor [1] and 407 nM on Tumor necrosis factor [2]. Besides, the remaining at 10 min in data set [3] turned out to be 81%; in data set [4], 49%.
For `CC(Nc1c(Cl)cnc2ccc(-c3cnc(C(C)(C)O)nc3)cc12)c1cccc(F)c1` (racemic), in that order: 31 nM, 1040 nM, 47% and 32%.
Taken in the same sequence, the figures for `C[C@@H](Nc1c(Cl)cnc2ccc(-c3cnc(N4CCS(=O)(=O)CC4)nc3)cc12)c1ccccc1F` were 25 nM, 152 nM, 57% and 34%.

(Values after ChEMBL document CHEMBL4680302, “Biologic-like In Vivo Efficacy with Small Molecule Inhibitors of TNFα Identified Using Scaffold Hopping and Structure-Based Drug Design Approaches” (J Med Chem, 2020).)
